The nature of this data set: Critical relative humidity of sugar alcohols determined at 37° C. The format is physicochemical. As to conditions: lowest humidity at which an increase in moisture content is observed after 72 hours. How it is done:
As such sugar alcohol, preferably used herein include those having a critical relative humidity as determined at 37° C. of not less than 70% and further preferably used herein are those having a critical relative humidity as determined at 37° C. of not less than 85%. […] For instance, the critical relative humidity can be determined by introducing samples (obtained after drying at 80° C. overnight) of about 1 g each into weighing bottles, placing them in thermo-hygrostats which have been set at the following relative humidity (RH) values: 37° C./40% RH, 37° C./45% RH, 37° C./55% RH, 37° C./65% RH, 37° C./70% RH, 37° C./75% RH, 37° C./80% RH, 37° C./85% RH, 37° C./90% RH, 37° C./95% RH and 37° C./98% RH, respectively (all of the chambers are of the same type: ETAC FX201P), allowing them to stand under such conditions over 72 hours, calculating the increase in the moisture content of each sample at this stage, and determining the lowest humidity at which an increase in the moisture content is observed, the resulting lowest humidity being defined to be the critical relative humidity of the sugar alcohol thus tested. […] The examples of such sugar alcohols having a critical relative humidity, as determined at 37° C., of not less than 70% are erythritol, xylitol, mannitol, maltitol, lactitol, and the like. […]

On to `OC[C@@H](O)[C@@H](O)[C@H](O)[C@@H](O)CO` [sorbitol], for which the critical relative humidity is 65%.

Regarding `OC[C@@H](O)[C@@H](O)[C@H](O)[C@H](O)CO` [mannitol], the critical relative humidity entry is listed as “not less than 98%”.

Source of the values: patent US20110152342A1, “STABILIZED PHARMACEUTICAL COMPOSITION” (priority 2008, published 2011).
